Results as given in patent US20230405140A1, “ANTI-CD56 ANTIBODY-DRUG CONJUGATES AND THEIR USE IN THERAPY” (MCSAF INSIDE ONCOLOGY, priority 2020, published 2023).
Non-standard residues stand in square brackets, D forms with d. Residues, ends and D or L forms follow the SMILES beside them. *: point of attachment. Dolaproine = CO[C@@H]([C@@H]1CCCN1)[C@@H](C)C(=O)O; Dil = CC[C@H](C)[C@H](NC)[C@@H](CC(=O)O)OC; X1 = C[C@@H](N*)[C@@H](O)c1ccccc1; NMeV = CN[C@H](C(=O)O)C(C)C

Legend:
Assay in all cases: XTT assay, ADC-mediated cytotoxicity
Format in all cases: cell-based
[1] = test system: MKL-1 CRISPR CD56; conditions: 4 days, CD56− cells, read-out: MKL-1 CRISPR CD56 n = 3 IC50
[2] = test system: H69; conditions: 4 days, read-out: H69 n = 3 IC50
Method: (§1) To evaluate cell viability and cellular metabolic activity, XTT assays were performed according to standard protocols. WaGa, PeTa, H69, H209, H660 cell lines were plated in 3 replicates in a 96-well plate with 5.10^4 cells/well. […] Untreated cells were used as viability reference. Cells treated with 1% Triton X100 were used as cell death positive control. After 4 days, 25 μL XTT reagent at 1 mg/mL (Alfa Aesar, thermo Fisher) with N-methyl dibenzopyrazine methyl sulfate (PMS) activator (25 μM) was added per well and absorbance was measured at 450 nm after 4 h incubation. Absorbance at 620 nm was used as a reference. Three independent experiments have been performed.

[3] = test system: WaGa; conditions: 4 days, read-out: WaGa n = 3 IC50
Method: as §1

[4] = test system: WaGa CRISPR CD56; conditions: 4 days, CD56− cells, read-out: WaGa CRISPR CD56 n = 3 IC50
Method: as §1

[5] = test system: H209; conditions: 4 days, read-out: H209 n = 3 IC50
Method: as §1

[6] = test system: PeTa; conditions: 4 days, read-out: PeTa n = 3 IC50
Method: as §1

Compound `CC[C@H](C)[C@@H]([C@@H](CC(=O)N1CCC[C@H]1[C@H](OC)[C@@H](C)C(=O)N[C@H](C)[C@@H](O)c1ccccc1)OC)N(C)C(=O)[C@@H](NC(=O)[C@@H](NC)C(C)C)C(C)C` [MMAE, monomethyl auristatin E, reference compound] (H-[NMeV]V[Dil][Dolaproine]-X1) has an IC50 [1] of 0.856 nM, an IC50 [2] of 0.888 nM and an IC50 [3] of 3.07 nM. It also gave an IC50 [4] of 0.942 nM, an IC50 [5] of 2.24 nM and an IC50 [6] of 1.11 nM.
